Data set [1] deals with retinal neovascularization in mice with ischemic retinopathy. The experiment in a line: retinal neovascularization in mice with oxygen-induced ischemic retinopathy. The format is in vivo, C57/BL6J mice.
Description: Ischemic retinopathy is produced in C57/BL6J mice by the following method: • Seven-day-old mice and their mothers are placed in an airtight incubator and exposed to an atmosphere of 75 ± 3% oxygen for 5 days. Incubator temperature is maintained at 23 ± 2°C, and oxygen is measured every 8 hours with an oxygen analyzer. After 5 days, the mice are removed from the incubator, placed in room air, and drug treatment is begun. […] Vehicle (control) or vehicle containing various concentrations of drug (volume = 50 µl in neonates and 100 µl in adult mice) is placed in the stomach by gavage. After 5 days of treatment at P17, mice are sacrificed, eyes are rapidly removed and frozen in optimum cutting temperature embedding compound (OCT; Miles Diagnostics, Elkhart, IN) or fixed in 10% phosphate-buffered formalin and embedded in paraffin. Adult C57BL6J mice are also treated by gavage with drug or vehicle and after 5 days, they are sacrificed and their eyes are processed for frozen or paraffin sections.
Slides are rinsed with 0.05M Tris-buffered saline, pH 7.6 (TBS) and incubated 2 hours at room temperature with biotinylated lectin. […] Some slides are counterstained with hematoxyln and all are mounted with Cytoseal.
The entire eye is sampled by staining sections roughly 50-60 µm apart, which provided 13 sections per eye for analysis. […] The mean of the 13 measurements from each eye is used as a single experimental value.
Data set [2] concerns choroidal neovascularization. In words: laser-induced choroidal neovascularization in mice. The conditions noted are these: 50 mg/kg/day by gavage, two weeks after laser.
Data set [3] deals with retinal vascular development. In words: retinal vascular development in neonatal mice. It is filed as in vivo, C57/BL6J mice. As to the method:
Litters of newborn C57/BL6J mice are divided into treatment and control groups which received daily subcutaneous injections of 10 mg/kg of drug or vehicle, respectively. At P7 or P10, mice are anesthetized with ether, and perfused with 1 ml of phosphate-buffered saline containing 50 mg/ml of fluorescein-labeled dextran (2x10^6 average mw, Sigma, St. Louis, MO).. The eyes are removed and fixed for 1 hour in 10% phosphate-buffered formalin. The cornea and lens are removed and the entire retina is carefully dissected from the eyecup, radially cut from the edge of the retina to the equator in all 4 quadrants, and flat-mounted in Aquamount. with photoreceptors facing upward.

For data set [4], the target named is Flk-1 (Mus musculus, UniProt P35918). The conditions noted are these: mouse versus human VEGF receptor 2.
Data set [5] deals with retinal vessels in adult mice. In words: effect on retinal vessels in adult mice. The format is in vivo, C57BL6J mice. The settings on record: 50 mg/kg/day.
Description: Vehicle (control) or vehicle containing various concentrations of drug (volume = 50 µl in neonates and 100 µl in adult mice) is placed in the stomach by gavage. […] Adult C57BL6J mice are also treated by gavage with drug or vehicle and after 5 days, they are sacrificed and their eyes are processed for frozen or paraffin sections. […] Slides are rinsed with 0.05M Tris-buffered saline, pH 7.6 (TBS) and incubated 2 hours at room temperature with biotinylated lectin. […] Some slides are counterstained with hematoxyln and all are mounted with Cytoseal. […] The mean of the 13 measurements from each eye is used as a single experimental value.
The target of data set [6] is T1, insulin receptor (Homo sapiens, UniProt P06213).
T1 construct: expressed in transfected cells; host or cells: Chinese hamster ovary cells
In words: cellular autophosphorylation assay in transfected Chinese hamster ovary cells. It is filed as cell-based. The conditions noted are these: Chinese hamster ovary cells transfected with RTK gene.

In data set [7] the test system is VEGF receptors. Described as above. The settings on record: Chinese hamster ovary cells transfected with RTK gene. The format is cell-based. As to the method:
(§1) In vivo activity requires drugs to enter cells and therefore agents are tested in cellular autophosphorylation assays, using Chinese hamster ovary cells transfected with one of several RTK genes.

In data set [8] the target is T2, c-Kit (Homo sapiens, UniProt P10721).
T2 construct: expressed in transfected cells; host or cells: Chinese hamster ovary cells
The description is as above. The conditions noted are these: Chinese hamster ovary cells transfected with RTK gene. The format is cell-based. Here is the method: as §1

The subject of data set [9] is PDGF receptors. The data set is described as above. The format is cell-based. The settings on record: Chinese hamster ovary cells transfected with RTK gene. Here is the method:
as §1

Data set [10] concerns the target c-erbB2 (Homo sapiens, UniProt P04626). The data set is described as above. The format is cell-based. The conditions noted are these: Chinese hamster ovary cells transfected with RTK gene.
[11] abbreviates: P17 mice, 2.5 mg/kg twice a day.
Where [12] appears, read: P17 mice, 25 mg/kg twice a day, gavage, 5 days.

c-erbB2, sequence (P04626 23-1255): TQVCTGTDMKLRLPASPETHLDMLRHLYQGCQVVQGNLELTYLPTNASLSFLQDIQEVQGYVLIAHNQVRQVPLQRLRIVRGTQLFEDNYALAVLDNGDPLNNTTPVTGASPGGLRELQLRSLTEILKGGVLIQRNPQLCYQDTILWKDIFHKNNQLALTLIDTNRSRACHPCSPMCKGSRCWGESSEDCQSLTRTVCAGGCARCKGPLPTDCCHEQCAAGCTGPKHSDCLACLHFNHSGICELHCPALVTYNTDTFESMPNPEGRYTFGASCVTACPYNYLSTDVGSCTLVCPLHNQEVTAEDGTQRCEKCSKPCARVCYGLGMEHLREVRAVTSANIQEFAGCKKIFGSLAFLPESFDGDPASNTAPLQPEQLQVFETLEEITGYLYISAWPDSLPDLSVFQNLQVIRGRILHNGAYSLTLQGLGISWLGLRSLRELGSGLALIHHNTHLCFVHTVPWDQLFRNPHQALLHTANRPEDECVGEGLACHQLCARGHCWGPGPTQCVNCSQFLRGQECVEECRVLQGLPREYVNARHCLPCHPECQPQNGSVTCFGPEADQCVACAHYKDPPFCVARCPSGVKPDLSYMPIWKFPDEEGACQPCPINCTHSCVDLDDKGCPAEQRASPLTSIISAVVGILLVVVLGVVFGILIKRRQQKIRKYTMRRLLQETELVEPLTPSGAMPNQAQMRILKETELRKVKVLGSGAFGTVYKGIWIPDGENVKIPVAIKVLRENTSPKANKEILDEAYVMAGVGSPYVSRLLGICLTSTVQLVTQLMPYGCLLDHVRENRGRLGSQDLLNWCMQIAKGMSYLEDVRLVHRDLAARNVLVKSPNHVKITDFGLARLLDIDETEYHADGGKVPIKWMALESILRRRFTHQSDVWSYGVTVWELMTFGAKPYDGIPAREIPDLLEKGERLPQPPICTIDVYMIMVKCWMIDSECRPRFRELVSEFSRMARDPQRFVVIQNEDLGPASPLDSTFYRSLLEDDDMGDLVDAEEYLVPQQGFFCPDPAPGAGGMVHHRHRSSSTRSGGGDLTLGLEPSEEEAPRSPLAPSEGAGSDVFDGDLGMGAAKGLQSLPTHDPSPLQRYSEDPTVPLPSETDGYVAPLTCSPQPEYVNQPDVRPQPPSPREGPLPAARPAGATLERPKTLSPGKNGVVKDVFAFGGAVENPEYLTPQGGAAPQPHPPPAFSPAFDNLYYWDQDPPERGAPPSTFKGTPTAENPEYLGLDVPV
T1 sequence (P06213 28-1382, species assumed): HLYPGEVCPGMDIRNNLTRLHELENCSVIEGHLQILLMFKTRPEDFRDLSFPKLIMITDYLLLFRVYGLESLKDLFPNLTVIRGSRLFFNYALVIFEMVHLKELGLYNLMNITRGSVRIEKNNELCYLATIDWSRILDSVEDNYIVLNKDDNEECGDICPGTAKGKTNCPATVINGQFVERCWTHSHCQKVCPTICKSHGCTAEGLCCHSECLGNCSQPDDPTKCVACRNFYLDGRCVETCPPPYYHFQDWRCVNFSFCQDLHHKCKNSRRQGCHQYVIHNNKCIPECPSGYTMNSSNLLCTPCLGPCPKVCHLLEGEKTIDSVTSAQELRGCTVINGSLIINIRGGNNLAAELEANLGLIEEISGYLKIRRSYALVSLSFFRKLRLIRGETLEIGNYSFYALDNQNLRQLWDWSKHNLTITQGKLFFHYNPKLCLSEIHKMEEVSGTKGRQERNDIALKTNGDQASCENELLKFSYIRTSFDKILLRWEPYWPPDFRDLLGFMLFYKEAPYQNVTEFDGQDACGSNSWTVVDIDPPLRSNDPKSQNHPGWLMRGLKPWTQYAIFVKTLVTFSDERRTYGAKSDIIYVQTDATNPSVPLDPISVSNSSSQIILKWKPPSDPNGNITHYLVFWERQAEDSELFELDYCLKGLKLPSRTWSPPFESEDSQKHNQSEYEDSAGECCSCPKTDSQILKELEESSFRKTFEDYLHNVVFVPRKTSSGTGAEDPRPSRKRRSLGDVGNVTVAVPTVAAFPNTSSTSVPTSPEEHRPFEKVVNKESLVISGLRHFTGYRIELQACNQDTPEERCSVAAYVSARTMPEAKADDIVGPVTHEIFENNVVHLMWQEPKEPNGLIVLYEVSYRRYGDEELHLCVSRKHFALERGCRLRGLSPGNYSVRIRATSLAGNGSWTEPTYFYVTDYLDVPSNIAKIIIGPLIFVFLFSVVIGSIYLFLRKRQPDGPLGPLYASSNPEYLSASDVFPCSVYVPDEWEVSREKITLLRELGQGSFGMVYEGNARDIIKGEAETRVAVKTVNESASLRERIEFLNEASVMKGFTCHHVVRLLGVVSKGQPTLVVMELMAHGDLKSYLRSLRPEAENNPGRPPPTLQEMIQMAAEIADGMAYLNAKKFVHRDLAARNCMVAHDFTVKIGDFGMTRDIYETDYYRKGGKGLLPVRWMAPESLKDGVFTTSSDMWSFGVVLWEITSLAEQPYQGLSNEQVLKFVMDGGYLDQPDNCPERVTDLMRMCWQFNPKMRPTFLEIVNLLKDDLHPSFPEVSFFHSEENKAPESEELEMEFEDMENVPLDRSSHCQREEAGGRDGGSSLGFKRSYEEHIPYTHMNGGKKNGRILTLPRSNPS
Flk-1, sequence (P35918 832-1160 limits assumed): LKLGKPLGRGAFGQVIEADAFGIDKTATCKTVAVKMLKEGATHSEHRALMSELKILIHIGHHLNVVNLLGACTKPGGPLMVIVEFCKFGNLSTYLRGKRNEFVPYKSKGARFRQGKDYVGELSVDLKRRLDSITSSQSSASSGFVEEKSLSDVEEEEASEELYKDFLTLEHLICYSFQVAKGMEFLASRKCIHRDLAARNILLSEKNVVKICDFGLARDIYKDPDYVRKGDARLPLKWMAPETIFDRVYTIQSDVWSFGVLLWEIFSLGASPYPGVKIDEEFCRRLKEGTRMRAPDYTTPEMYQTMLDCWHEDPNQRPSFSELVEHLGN
T2 sequence (P10721 26-976): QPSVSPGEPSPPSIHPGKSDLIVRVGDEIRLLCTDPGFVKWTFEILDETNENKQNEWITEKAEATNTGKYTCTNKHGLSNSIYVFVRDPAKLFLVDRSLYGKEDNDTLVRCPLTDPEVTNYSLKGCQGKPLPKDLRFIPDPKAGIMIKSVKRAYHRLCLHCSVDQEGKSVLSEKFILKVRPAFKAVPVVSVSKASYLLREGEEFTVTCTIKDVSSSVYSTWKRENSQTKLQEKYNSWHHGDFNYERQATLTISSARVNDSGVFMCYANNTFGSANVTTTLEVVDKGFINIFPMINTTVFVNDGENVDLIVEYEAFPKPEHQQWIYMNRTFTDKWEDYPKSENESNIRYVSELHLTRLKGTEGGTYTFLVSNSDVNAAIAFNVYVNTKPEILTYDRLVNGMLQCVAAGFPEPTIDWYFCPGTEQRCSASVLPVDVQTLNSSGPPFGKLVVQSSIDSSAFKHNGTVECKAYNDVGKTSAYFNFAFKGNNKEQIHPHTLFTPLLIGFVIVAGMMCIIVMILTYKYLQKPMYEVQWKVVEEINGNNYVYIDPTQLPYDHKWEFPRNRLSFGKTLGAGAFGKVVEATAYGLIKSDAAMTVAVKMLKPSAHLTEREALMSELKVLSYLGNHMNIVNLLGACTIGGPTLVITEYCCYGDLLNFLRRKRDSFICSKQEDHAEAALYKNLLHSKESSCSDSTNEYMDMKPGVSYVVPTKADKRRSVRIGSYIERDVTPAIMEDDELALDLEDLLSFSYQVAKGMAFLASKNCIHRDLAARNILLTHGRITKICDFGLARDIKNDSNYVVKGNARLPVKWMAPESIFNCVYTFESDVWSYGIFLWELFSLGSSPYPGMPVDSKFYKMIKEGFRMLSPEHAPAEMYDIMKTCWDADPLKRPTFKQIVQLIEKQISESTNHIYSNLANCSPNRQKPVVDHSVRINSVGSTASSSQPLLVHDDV

For `O=c1c(-c2ccc(O)cc2)coc2cc(O)cc(O)c12` [Genistein, 4', 5,7-trihydroxyisoflavone, reference compound], the “endothelial staining in the retina” value in data set [1] (dose comparable to the highest dose of CGP 79787D) is reported as “no significant decrease”.
On to `Clc1ccc(Nc2nnc(Cc3ccncc3)c3ccccc23)cc1` [CGP 79787D], for which, in data set [1] (P17 mice, 0.25 mg/kg), the “staining in the inner nuclear layer” value is listed as “no identifiable decrease” and the “total endothelial staining in the retina” value was “decreased total endothelial staining in the retina that is not statistically significant”. In data set [1] (setting [11]), the “endothelial cell staining in the retina” value was “significantly less than vehicle-treated controls” and the “endothelial staining in the inner nuclear layer” value is reported as “some decrease”. Besides, in data set [1] (P17 mice, 25 mg/kg twice a day), the “endothelial cell staining in the inner nuclear layer and outer plexiform layer (deep capillary bed)” value was “striking absence”. Besides, in data set [1] (setting [12]), the “endothelial cell staining within the retina” value is reported as “dramatic decrease” and the “neovascularization (endothelial cells on the surface of the retina)” value is listed as “complete inhibition”. Besides, in [2], the “choroidal neovascularization at the site of each laser-induced rupture of Bruch's membrane” value is recorded as “very little if any” and the overlying retinal vessels result was “appeared normal”. Besides, the “integrated area of lectin staining per lesion” value in [2] (n = 5) is 0.01124±0.001483 mm^2. Besides, the “extension of retinal vessels” value in [3] (P7, injections of 10 mg/kg starting on P0) is recorded as “only extended about half way to the periphery”. For the same compound, the “extension of the superficial capillary bed” value in data set [3] (P10, injections of 10 mg/kg starting on P0) is given as “has not yet reached the edge of the retina”. In addition, the “less potent as an inhibitor of mouse VEGF receptor 2 compared to the human receptor” value in data set [4] is given as “about 10 fold”. Moreover, the “total area of endothelial staining in the retina or the appearance of retinal vessels compared to vehicle-treated mice” value in data set [5] is “no difference”. Also, in [6], the autophosphorylation result is reported as “poor inhibitor”. In [7], the autophosphorylation entry is “inhibits”. In data set [8], the autophosphorylation entry was “inhibits”. In [9], the autophosphorylation result was “inhibits”. Moreover, the autophosphorylation entry in data set [10] is “poor inhibitor”.

Source of the values: patent EP1105136B1, “METHOD FOR TREATING OCULAR NEOVASCULAR DISEASES” (Novartis AG, priority 1998, dated 2000).
